Results taken from ChEMBL document CHEMBL1142813, “Synthesis of tripeptides as potent Yersinia protein tyrosine phosphatase inhibitors” (Bioorg Med Chem Lett, 2005).

Columns and labels:
[1] = molecular target: T1, Tyrosine-protein phosphatase non-receptor type 1 (Homo sapiens, UniProt P18031); assay: Inhibitory concentration against human PTP1B expressed in Escherichia coli BL21 cells
T1 sequence (P18031 whole entry): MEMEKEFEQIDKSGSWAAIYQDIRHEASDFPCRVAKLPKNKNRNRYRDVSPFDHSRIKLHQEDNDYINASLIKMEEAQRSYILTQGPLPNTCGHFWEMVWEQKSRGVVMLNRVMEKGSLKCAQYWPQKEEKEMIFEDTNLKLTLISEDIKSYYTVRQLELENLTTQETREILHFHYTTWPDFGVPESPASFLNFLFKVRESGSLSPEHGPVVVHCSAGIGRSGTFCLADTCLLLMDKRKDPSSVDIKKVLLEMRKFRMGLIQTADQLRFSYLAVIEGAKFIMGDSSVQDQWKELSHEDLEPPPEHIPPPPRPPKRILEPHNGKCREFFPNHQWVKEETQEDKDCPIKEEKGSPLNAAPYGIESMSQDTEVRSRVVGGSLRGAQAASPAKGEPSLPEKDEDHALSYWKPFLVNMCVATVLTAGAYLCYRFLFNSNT

[2] = molecular target: Secreted effector protein (Yersinia pestis, UniProt O68720); assay: Inhibitory concentration against Yersinia pestis YopH expressed in Escherichia coli BL21 cells
Sequence of Secreted effector protein (O68720 whole entry): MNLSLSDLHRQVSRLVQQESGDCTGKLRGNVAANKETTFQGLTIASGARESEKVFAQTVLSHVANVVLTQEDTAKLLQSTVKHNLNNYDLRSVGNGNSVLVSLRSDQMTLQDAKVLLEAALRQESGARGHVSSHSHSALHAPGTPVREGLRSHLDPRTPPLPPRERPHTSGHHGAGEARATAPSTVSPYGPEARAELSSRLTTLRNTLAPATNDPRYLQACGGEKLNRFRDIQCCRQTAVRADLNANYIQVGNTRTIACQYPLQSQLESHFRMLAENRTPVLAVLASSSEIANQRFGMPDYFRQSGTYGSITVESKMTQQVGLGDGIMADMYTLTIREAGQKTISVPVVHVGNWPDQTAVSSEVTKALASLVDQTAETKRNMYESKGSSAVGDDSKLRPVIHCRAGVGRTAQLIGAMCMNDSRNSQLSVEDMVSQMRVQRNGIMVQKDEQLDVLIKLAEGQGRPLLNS

| SMILES | IC50 [1] [µM] | IC50 [2] [µM] |
| --- | --- | --- |
| Cc1ccc2c(c1)CCN2CCC(=O)N[C@@H](CCC(=O)OCc1ccccc1)C(=O)N[C@@H](Cc1ccc(OCC(=O)O)cc1)C(=O)C[C@@H](CC(C)C)C(N)=O | 4.3 | 5.6 |
| CC(C)C[C@H](CC(=O)[C@H](Cc1ccc(OCC(=O)O)cc1)NC(=O)[C@H](CCC(=O)OCc1ccccc1)NC(=O)COc1cccc2ccccc12)C(N)=O | 13 | 20 |
| CC(C)C[C@H](CC(=O)[C@H](Cc1ccc(OCC(=O)O)cc1)NC(=O)[C@H](CCC(=O)OCc1ccccc1)NC(=O)CCCc1c[nH]c2ccccc12)C(N)=O | > 100 | > 100 |
| CC(C)C[C@H](CC(=O)[C@H](Cc1ccc(OCC(=O)O)cc1)NC(=O)[C@H](CCC(=O)OCc1ccccc1)NC(=O)CCc1c[nH]c2ccccc12)C(N)=O | > 100 | > 100 |
| CC(C)C[C@H](CC(=O)[C@H](Cc1ccc(OCC(=O)O)cc1)NC(=O)[C@H](CCC(=O)OCc1ccccc1)NC(=O)OCC1c2ccccc2-c2ccccc21)C(N)=O | 2.9 | 1.8 |
| COc1ccc(Cn2nnc(CC(=O)N[C@@H](CCC(=O)OCc3ccccc3)C(=O)N[C@@H](Cc3ccc(OCC(=O)O)cc3)C(=O)C[C@@H](CC(C)C)C(N)=O)n2)cc1 | > 100 | > 100 |
| CC(C)C[C@H](CC(=O)[C@H](Cc1ccc(C(F)(F)C(=O)O)cc1)NC(=O)[C@H](CCC(=O)OCc1ccccc1)NC(=O)OCC1c2ccccc2-c2ccccc21)C(N)=O | 3.1 | 2.5 |
| CC(C)C[C@H](CC(=O)[C@H](Cc1ccc(OC(F)(F)C(=O)O)cc1)NC(=O)[C@H](CCC(=O)OCc1ccccc1)NC(=O)OCC1c2ccccc2-c2ccccc21)C(N)=O | 3.8 | 1.9 |
| CC(C)C[C@H](CC(=O)[C@H](Cc1ccc(OCC(=O)O)cc1)NC(=O)[C@H](CNC(=O)OCc1ccccc1)NC(=O)OCC1c2ccccc2-c2ccccc21)C(N)=O | 4.3 | 2.1 |
| CC(C)C[C@H](NC(=O)[C@H](Cc1ccc(OCC(=O)O)cc1)NC(=O)C(CNC(=O)OCc1ccccc1)CNC(=O)OCc1ccccc1)C(N)=O | 2.8 | 4 |
| Cc1cn(CC(=O)N[C@@H](CCC(=O)OCc2ccccc2)C(=O)N[C@@H](Cc2ccc(OCC(=O)O)cc2)C(=O)C[C@@H](CC(C)C)C(N)=O)c(=O)[nH]c1=O | > 100 | > 100 |
| CC(C)C[C@H](CC(=O)[C@H](Cc1ccc(CC(=O)O)cc1)NC(=O)[C@H](CCC(=O)OCc1ccccc1)NC(=O)OCC1c2ccccc2-c2ccccc21)C(N)=O | 4.6 | 2.4 |
| CC(C)C[C@H](CC(=O)[C@H](Cc1ccc(OCC(=O)O)cc1)NC(=O)[C@H](CCC(=O)OCc1ccccc1)NC(=O)COc1ccc2ccccc2c1)C(N)=O | 23 | 30 |
| CC(C)C[C@H](CC(=O)[C@H](Cc1ccc(OCC(=O)O)cc1)NC(=O)[C@H](CCC(=O)OCc1ccccc1)NC(=O)CCc1cccc2ccccc12)C(N)=O | 12 | 18 |
| CC(C)C[C@H](CC(=O)[C@H](Cc1ccc(OCC(=O)O)cc1)NC(=O)[C@H](CCC(=O)OCc1ccccc1)NS(=O)(=O)CCc1cccc2ccccc12)C(N)=O | 24 | 22 |
| CC(C)C[C@H](CC(=O)[C@H](Cc1ccc(OCC(=O)O)cc1)NC(=O)[C@H](CCC(=O)OCc1ccccc1)NC(=O)CCc1c2ccccc2cc2ccccc12)C(N)=O | 6.4 | 12 |
